Results on 23 compounds are retold here after patent US9527830B2 (Merck Sharp & Dohme Corp., priority 2011, dated 2016).

What is called IC50 is the concentration that gives 50% inhibition.

Structures are written as SMILES. Some results are limits rather than exact numbers.

The assay deals with T1, hROMK1 (Kir1.1) (Homo sapiens, UniProt P48048).
T1 construct: expressed in transfected cells
T1 sequence (P48048 1-391): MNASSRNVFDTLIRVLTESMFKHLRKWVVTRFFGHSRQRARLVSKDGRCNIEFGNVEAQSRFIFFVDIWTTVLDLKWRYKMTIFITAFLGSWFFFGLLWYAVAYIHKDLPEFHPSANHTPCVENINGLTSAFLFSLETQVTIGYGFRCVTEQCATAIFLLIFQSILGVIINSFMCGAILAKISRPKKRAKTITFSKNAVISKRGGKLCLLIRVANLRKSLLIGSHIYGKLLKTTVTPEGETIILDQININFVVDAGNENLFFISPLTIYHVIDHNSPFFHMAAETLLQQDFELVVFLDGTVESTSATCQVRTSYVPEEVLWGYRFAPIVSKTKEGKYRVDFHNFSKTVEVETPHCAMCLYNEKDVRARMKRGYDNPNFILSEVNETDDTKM
Description: ^86Rb^+ Efflux Assay. Type of assay: cell-based. The conditions noted are these: CHO-DHFR- cells stably expressing hROMK1; potency ranges. The protocol:
Several assays may be used to measure functional inhibition of the ROMK channel by compounds of the instant invention. One primary assay that can be used is a functional ^86Rb^+ efflux assay that measures the ability of ROMK to permeate ^86Rb^+, in the absence or presence of test compound. Under control conditions, cells loaded with ^86Rb^+ and incubated in Rb^+-free medium display a time-dependent efflux of the isotope, the rate of which depends on number of functional channels. When cells are incubated in the presence of a channel inhibitor, efflux of ^86Rb^+ is prevented in a concentration-dependent manner, and IC50 values of inhibition by compounds can be accurately determined. This assay has been established with cell lines expressing either human, rat or dog ROMK channels, and can operate in 96- or 384-well format. Importantly, the human, rat, and dog ^86Rb^+ efflux assays can be carried out in the presence of up to 100% serum allowing, therefore, an accurate estimation of the effect of protein binding on the inhibitory activity of compounds of interest. Another ROMK functional assay makes use of the ability of thallium to permeate through open ROMK channels and increase the fluorescence of a dye previously loaded into the cells. Under control conditions, cells loaded with dye and exposed to thallium-containing medium display a time-dependent increase in fluorescence, the rate of which depends on number of functional channels. When cells are incubated in the presence of a channel inhibitor, the increase in fluorescence is attenuated in a concentration-dependent manner, and IC50 values of inhibition by compounds can be accurately determined. This assay has been established with cell lines expressing either human, or rat ROMK channels, and operates in 384-well format. Another assay for evaluation of the compounds of the instant invention and for evaluation of mechanism of action of compounds of Formula I relies on the measurement of the electrical current that is generated as potassium permeates through the channel. For these electrophysiological experiments, three different platforms, IonWorks, QPatch, or manual patch clamp, are used, depending on the experimental protocol under consideration. IonWorks operates in a 384-well format and allows accurate determination of IC50 values for inhibitors.
CHO-DHFR-cells stably expressing hROMK1 (Kir1.1) were grown at 37° C. in a 10% CO2 humidified incubator in Iscove's Modified Dulbecco's Medium (Gibco 12440) supplemented with HT Supplement, Penicillin/Streptomycin/Glutamine, G418 (500 μg/ml) and 10% FBS. Cells were seeded in Sterile and Tissue Culture Treated Packard CulturPlate White Opaque Microplates at a concentration of 5.0E5-7.0E5 cells/ml—PerkinElmer 6005680 (96-well); Corning 3707 (384 well) in complete media containing 1.5 μCi/ml Rubidium-86. Cells were incubated in 37° C.-10% CO2 incubator overnight. On the day of the experiment, the media was removed and cells washed with low K assay buffer. ^86Rb^+ efflux was initiated after addition of assay buffer±test compound followed by 35 min incubation at room temperature. ROMK-sensitive component of efflux was defined in the presence of 10 mM BaCl2. Assay buffer was removed and transferred to a plate and cells were solubilized in the presence of SDS. Radioactivity associated with assay and cell plate was determined.
• 1. Removed cell media and washed cells with low K assay buffer (126.9 mM NaCl, 4.6 mM KCl, 2 mM CaCl2, 1 mM MgCl2, 10 mM Hepes/NaOH; pH 7.4) • 200 μl for 96-well plate; 70 μl for 384-well plate • 2. Added assay buffer (121.5 mM NaCl, 10 mM KCl, 2 mM CaCl2, 1 mM MgCl2, 10 mM Hepes/NaOH; pH 7.4)±test compound to cells • 100 μl for 96-well plate; 50 μl for 384-well plate • 3. Incubated at ambient temperature (22-24° C.) for 35 min • 4.
In turn, `O=C1OCc2cc(SC3CCN(C(=O)Cc4ccc(-n5cnnn5)cc4)CC3)ccc21` [Example 51, 5-[(1-{[4-(1H-Tetrazol-1-yl)phenyl]acetyl}piperidin-4-yl)sulfanyl]-2-benzofuran-1(3H)-one] registered an IC50 of at most 500 nM.

As for `COc1cc(CC(=O)N2CCC(CCc3ccc4c(c3)CCOC4=O)CC2)c(F)cc1C#N` [Example 67, 5-Fluoro-2-methoxy-4-(2-oxo-2-{4-[2-(1-oxo-3,4-dihydro-1H-isochromen-6-yl)ethyl]piperidin-1-yl}ethyl)benzonitrile], the IC50 was at most 500 nM.

As for `N#Cc1c(F)ccc(CCC2(O)CCN(C(=O)Cc3ccc(-n4cnnn4)cc3)CC2)c1Cl` [Example 40, 2-Chloro-6-fluoro-3-[2-(4-hydroxy-1-{[4-(1H-tetrazol-1-yl)phenyl]acetyl}piperidin-4-yl)ethyl]benzonitrile], the IC50 was at most 500 nM.

For the compound `O=C1OCc2c1ccc(CCC1CCN(C(=O)Cc3ccc(-n4cnnn4)cc3)CC1)c2F` [Example 57, 4-Fluoro-5-[2-(1-{[4-(1H-tetrazol-1-yl)phenyl]acetyl}piperidin-4-yl)ethyl]-2-benzofuran-1(3H)-one], the IC50 was at most 200 nM.

`COc1cc(CC(=O)N2CCC(/C=C/c3ccc4c(c3)COC4=O)CC2)ccc1C#N` [Example 52, 2-Methoxy-4-(2-oxo-2-(4-[(E)-2-(1-oxo-1,3-dihydro-2-benzofuran-5-yl)ethenyl]piperidin-1-yl}ethyl]benzonitrile] gave a half-inhibitory concentration (IC50) of at most 500 nM.

On to `COc1cc(C#N)c(F)cc1CC(=O)N1CCC(CCc2ccc3c(c2)COC3=O)CC1` [Example 70, 2-Fluoro-5-methoxy-4-(2-oxo-2-{4-[2-(1-oxo-1,3-dihydro-2-benzofuran-5-yl)ethyl]piperidin-1-yl}ethyl)benzonitrile], for which the IC50 is at most 200 nM.

With `O=C1OCc2cc(/C=C/C3CCN(C(=O)Cc4ccc5c(c4)COC5=O)CC3)ccc21` [Example 47, 5-[(E)-2-{1-[(1-Oxo-1,3-dihydro-2-benzofuran-5-yl)acetyl]piperidin-4-}ethenyl]-2-benzofuran-1(3H)-one], the concentration for half-maximal inhibition (IC50) was at most 500 nM.

For `CC1Cc2cc(CCC3CCN(C(=O)Cc4ccc(-n5cnnn5)cc4)CC3)ccc2C(=O)O1` (centres unmarked) [Example 80, 3-Methyl-6-[2-(1-{[4-(1H-tetrazol-1-yl)phenyl]acetyl}piperidin-4-yl)ethyl]-3,4-dihydro-1H-isochromen-1-one], the half-inhibitory concentration (IC50) was at most 200 nM.

The compound `N#Cc1cc(CCC2(O)CCN(CCc3ccc4c(c3)COC4=O)CC2)ccc1F` [Example 30, 2-Fluoro-5-(2-{4-hydroxy-1-[2-(1-oxo-1,3-dihydro-2-benzofuran-5-yl)ethyl]piperidin-4-yl}ethyl)benzonitrile] yielded a 50% inhibitory concentration (IC50) of at most 200 nM.

With `COc1cc(CCN2CCC(CCc3ccc4c(c3)COC4=O)CC2)ccc1C#N` [Example 71, 2-Methoxy-4-(2-{4-[2-(1-oxo-1,3-dihydro-2-benzofuran-5-yl)ethyl]piperidin-1-yl}ethyl)benzonitrile], the half-inhibitory concentration (IC50) was at most 200 nM.

For `Cc1c(CCC2(O)CCN(C(=O)Cc3ccc(-n4cnnn4)cc3)CC2)ccc(F)c1C#N` [Example 37, 6-Fluoro-3-[2-(4-hydroxy-1-{[4-(1H-tetrazol-1-yl)phenyl]acetyl}piperidin-4-yl)ethyl]-2-methylbenzonitrile], the IC50 was at most 500 nM.

`CCOC(=O)C1(CCc2ccc(F)c(C#N)c2)CCN(C(=O)Cc2ccc(-n3cnnn3)cc2)CC1` [Example 15, Ethyl 4-[2-(3-cyano-4-fluorophenyl)ethyl]-1-{[4-(1H-tetrazol-1-yl)phenyl]acetyl}piperidine-4-carboxylate]: the IC50 is at most 500 nM.

Regarding `O=C1OCc2cc(/C=C/C3CCN(C(=O)Cc4ccc(-n5cnnn5)cc4)CC3)ccc21` [Example 6], the IC50 was at most 200 nM.

Regarding `N#Cc1cc(CCC2(F)CCN(C(=O)Cc3ccc(-n4cnnn4)cc3)CC2)ccc1F` [Example 14, 2-Fluoro-5-[2-(4-fluoro-1-{[4-(1H-tetrazol-1-yl)phenyl]acetyl}piperidin-4-yl)ethyl]benzonitrile], the concentration for half-maximal inhibition (IC50) is at most 500 nM.

The compound `COC(=O)C1(CCc2ccc([N+](=O)[O-])cc2)CCN(CCc2ccc([N+](=O)[O-])cc2)CC1` [Example 1, Methyl 1,4-bis[2-(4-nitrophenyl)ethyl]piperidine-4-carboxylate] had a concentration for half-maximal inhibition (IC50) of at most 200 nM.

Compound `O=C1OCc2cc(CCC3CCN(C(=O)C4CCc5cc(-n6cnnn6)ccc54)CC3)ccc21` (centres unmarked) [Example 72, 5-[2(1-{[5(1H-Tetrazol-1-yl)-2,3-dihydro-1H-inden-yl]carbonyl}piperidin-4-yl)ethyl]-2-benzofuran-1(3H)-one] returned an IC50 of at most 200 nM.

For `N#Cc1cc(CCC2(C(F)F)CCN(C(=O)Cc3ccc(-n4cnnn4)cc3)CC2)ccc1F` [Example 27, 5-{2-[4-(Difluoromethyl)-1-{[4-(1H-tetrazol-1-yl)phenyl]acetyl}piperidin-4-yl]ethyl}-2-fluorobenzonitrile], the 50% inhibitory concentration (IC50) was at most 500 nM.

Compound `N#Cc1c(F)ccc(C#CC2(O)CCN(C(=O)Cc3ccc(-n4cnnn4)cc3)CC2)c1Cl` [Example 39, 2-Chloro-6-fluoro-3-[(4-hydroxy-1-{[4-(1H-tetrazol-1-yl)phenyl]acetyl}piperidin-4-yl)ethynyl]benzonitrile] displayed an IC50 of at most 500 nM.

`O=C1OCc2cc(CCC3CCN(C(=O)Cc4ccc5c(c4)COC5=O)CC3)ccc21` [Example 50, 5-(2-{1-[(1-Oxo-1,3-dihydro-2-benzofuran-5-yl)acetyl]piperidin-4-yl}ethyl)-2-benzofuran-1(3H)-one] registered an IC50 of at most 500 nM.

As for `COc1cc(CC(=O)N2CCC(CCc3ccc4c(c3)COC4=O)CC2)ccc1C#N` [Example 53, 2-Methoxy-4-(2-oxo-2-(4-[2-(1-oxo-1,3-dihydro-2-benzofuran-5-yl)ethyl]piperidin-1-yl}ethyl]benzonitrile], the IC50 is at most 500 nM.

For `N#Cc1cc(/C=C/C2CCN(C(=O)Cc3ccc4c(c3)COC4=O)CC2)ccc1F` [Example 48, 2-Fluoro-5-[(E)-2-{1-[(1-oxo-1,3-dihydro-2-benzofuran-5-yl)acetyl]piperidin-4-yl}ethenyl]benzonitrile], the half-maximal inhibitory concentration (IC50) is at most 500 nM.

Consider `O=C1OCc2c1ccc(CCC1CCN(C(=O)Cc3ccc(-n4cnnn4)cc3)CC1)c2Br` [Example 59, 4-Bromo-5-[2-(1-{[4-(1H-tetrazol-1-yl)phenyl]acetyl}piperidin-4-yl)ethyl]-2-benzofuran-1(3H)-one], for which the IC50 is at most 200 nM.

`N#Cc1cc(CCC2(O)CCN(C(=O)Cc3ccc(-n4cnnn4)cc3C(F)(F)F)CC2)ccc1F` [Example 31, 2-Fluoro-5-[2-(4-hydroxy-1-{[4-(1H-tetrazol-1-yl)-2-(trifluoromethyl)phenyl]acetyl}piperidin-4-yl)ethyl]benzonitrile] came in with a 50% inhibitory concentration (IC50) of at most 500 nM.
